Laboratory results published in ChEMBL document CHEMBL4334519, “Anti-inflammatory and α-Glucosidase Inhibitory Activities of Labdane and Norlabdane Diterpenoids from the Rhizomes of Amomum villosum” (J Nat Prod, 2019).
Active and inactive are the calls of the source. No cut-off for these calls is given here.

Test system: Saccharomyces cerevisiae
Test: Mixed-type inhibition of yeast alpha-glucosidase assessed as reduction in Vmax up to 20 uM using p-NPG as substrate measured up to 180 mins by Lineweaver-Burk plot analysis
Settings: not given

Row | inhibition | SMILES
1 | Active | C=C1CC[C@H]2C(C)(C)CCC[C@]2(C)[C@H]1/C=C/C1=CC(=O)O[C@H]1O

Molecular target: not listed separately
Test: Mixed-type inhibition of yeast alpha-glucosidase assessed as inhibition constant using p-NPG as substrate measured up to 180 mins by Lineweaver-Burk plot analysis
Set-up: species or system Saccharomyces cerevisiae
Settings: not given

Row | Ki [µM] | SMILES
2 | 9.5 | C=C1CC[C@H]2C(C)(C)CCC[C@]2(C)[C@H]1/C=C/C1=CC(=O)O[C@H]1O

Test system: RAW264.7
Test: Antiinflammatory activity against mouse RAW264.7 cells assessed as inhibition of LPS-induced nitric oxide production measured after 24 hrs
Assay type: functional, cell-based
Settings: RAW264.7, 24 h

Row | IC50 [µM] | SMILES
3 | > 50 | C=C1CC[C@H]2C(C)(C)CCC[C@]2(C)[C@H]1C/C=C(\CC(=O)OCC)C(=O)O
4 | 28.7 | C=C1CC[C@H]2C(C)(C)CCC[C@]2(C)[C@H]1C/C=C(/C=O)CO
5 | 31.2 | C=C1CC[C@H]2C(C)(C)CCC[C@]2(C)[C@H]1C/C=C1\CC(OCC)OC1=O (some centres undefined)
6 | 18.8 | C=C1CC[C@H]2C(C)(C)CCC[C@]2(C)[C@H]1CCC1=CC(=O)OC1
7 | 30.8 | C=C1CC[C@H]2C(C)(C)CCC[C@]2(C)[C@H]1C/C=C1\CCOC1=O

Continued, molecule first:

Row | SMILES | IC50 [µM]
8 | C=C1CC[C@H]2C(C)(C)CCC[C@]2(C)[C@H]1C/C=C(/C=O)CCO | > 50
9 | C=C1CC[C@H]2C(C)(C)CCC[C@]2(C)[C@H]1C/C=C1\CC(OC)OC1=O (some centres undefined) | 24.6
10 | C=C1CC[C@H]2C(C)(C)CCC[C@]2(C)[C@H]1CCC1=CC(O)OC1=O (some centres undefined) [CORONARIN C] | 25.8
11 | C=C1CC[C@H]2C(C)(C)CCC[C@]2(C)[C@H]1/C=C/C1=CC(=O)O[C@H]1O | 2.4
12 | CNC(=N)NCCC[C@H](N)C(=O)O [TILARGININE] | 27.2
13 | C=C1CC[C@H]2C(C)(C)CCC[C@]2(C)[C@H]1/C=C/C(=O)O | 23.7
14 | CC1(C)CCC[C@]2(C)CC3=C(C[C@@H]12)C(=O)CC3 | 43.1
15 | C=C1CC[C@H]2C(C)(C)CCC[C@]2(C)[C@H]1C/C=C1\CC(=O)OC1=O | 11

Molecular target: not listed separately
Test: Inhibition of yeast alpha-glucosidase using p-nitrophenyl-alpha-D-glucopyranoside as substrate preincubated for 30 mins followed by substrate addition and measured after 30 mins by microplate reader analysis
Set-up: species or system Saccharomyces cerevisiae
Settings: not given

Row | IC50 [µM] | SMILES
16 | > 50 | C=C1CC[C@H]2C(C)(C)CCC[C@]2(C)[C@H]1C/C=C(\CC(=O)OCC)C(=O)O
17 | > 50 | C=C1CC[C@H]2C(C)(C)CCC[C@]2(C)[C@H]1C/C=C(/C=O)CO
18 | 13.8 | C=C1CC[C@H]2C(C)(C)CCC[C@]2(C)[C@H]1C/C=C1\CC(OCC)OC1=O (some centres undefined)
19 | 14.8 | C=C1CC[C@H]2C(C)(C)CCC[C@]2(C)[C@H]1CCC1=CC(=O)OC1
20 | 17.1 | C=C1CC[C@H]2C(C)(C)CCC[C@]2(C)[C@H]1C/C=C1\CCOC1=O

Further lines, the molecule ahead of its results:

Row | SMILES | IC50 [µM]
21 | C=C1CC[C@H]2C(C)(C)CCC[C@]2(C)[C@H]1C/C=C(/C=O)CCO | > 50
22 | C=C1CC[C@H]2C(C)(C)CCC[C@]2(C)[C@H]1C/C=C1\CC(OC)OC1=O (some centres undefined) | 15.8
23 | C=C1CC[C@H]2C(C)(C)CCC[C@]2(C)[C@H]1CCC1=CC(O)OC1=O (some centres undefined) [CORONARIN C] | 17.5
24 | O=c1c(-c2ccc(O)cc2)coc2cc(O)cc(O)c12 [GENISTEIN] | 17.6
25 | C=C1CC[C@H]2C(C)(C)CCC[C@]2(C)[C@H]1/C=C/C1=CC(=O)O[C@H]1O | 10
26 | C=C1CC[C@H]2C(C)(C)CCC[C@]2(C)[C@H]1/C=C/C(=O)O | > 50
27 | CC1(C)CCC[C@]2(C)CC3=C(C[C@@H]12)C(=O)CC3 | > 50
28 | C=C1CC[C@H]2C(C)(C)CCC[C@]2(C)[C@H]1C/C=C1\CC(=O)OC1=O | 21.1
29 | OC[C@H]1NC[C@H](O)[C@@H](O)[C@@H]1O [DUVOGLUSTAT] | 115

Test system: Saccharomyces cerevisiae
Test: Inhibition of yeast alpha-glucosidase at 50 uM using p-nitrophenyl-alpha-D-glucopyranoside as substrate preincubated for 30 mins followed by substrate addition and measured after 30 mins by microplate reader analysis
Settings: not given

Row | inhibition [%] | SMILES
30 | 38.7 | C=C1CC[C@H]2C(C)(C)CCC[C@]2(C)[C@H]1C/C=C(\CC(=O)OCC)C(=O)O
31 | 27.1 | C=C1CC[C@H]2C(C)(C)CCC[C@]2(C)[C@H]1C/C=C(/C=O)CO
32 | 89.3 | C=C1CC[C@H]2C(C)(C)CCC[C@]2(C)[C@H]1C/C=C1\CC(OCC)OC1=O (some centres undefined)
33 | 89 | C=C1CC[C@H]2C(C)(C)CCC[C@]2(C)[C@H]1CCC1=CC(=O)OC1
34 | 89.1 | C=C1CC[C@H]2C(C)(C)CCC[C@]2(C)[C@H]1C/C=C1\CCOC1=O

Continued, molecule first:

Row | SMILES | inhibition [%]
35 | C=C1CC[C@H]2C(C)(C)CCC[C@]2(C)[C@H]1C/C=C(/C=O)CCO | 36.9
36 | C=C1CC[C@H]2C(C)(C)CCC[C@]2(C)[C@H]1C/C=C1\CC(OC)OC1=O (some centres undefined) | 87.8
37 | C=C1CC[C@H]2C(C)(C)CCC[C@]2(C)[C@H]1CCC1=CC(O)OC1=O (some centres undefined) [CORONARIN C] | 87.4
38 | O=c1c(-c2ccc(O)cc2)coc2cc(O)cc(O)c12 [GENISTEIN] | 70
39 | C=C1CC[C@H]2C(C)(C)CCC[C@]2(C)[C@H]1/C=C/C1=CC(=O)O[C@H]1O | 95.7
40 | C=C1CC[C@H]2C(C)(C)CCC[C@]2(C)[C@H]1/C=C/C(=O)O | 33.2
41 | CC1(C)CCC[C@]2(C)CC3=C(C[C@@H]12)C(=O)CC3 | 12.4
42 | C=C1CC[C@H]2C(C)(C)CCC[C@]2(C)[C@H]1C/C=C1\CC(=O)OC1=O | 90.3
43 | OC[C@H]1NC[C@H](O)[C@@H](O)[C@@H]1O [DUVOGLUSTAT] | 36.8

Test system: Saccharomyces cerevisiae
Test: Mixed-type inhibition of yeast alpha-glucosidase assessed as reduction in Km up to 20 uM using p-NPG as substrate measured up to 180 mins by Lineweaver-Burk plot analysis
Settings: not given

Row | inhibition | SMILES
44 | Active | C=C1CC[C@H]2C(C)(C)CCC[C@]2(C)[C@H]1/C=C/C1=CC(=O)O[C@H]1O
